In PMC10522709, “Rational design and characterization of cell-selective antimicrobial peptides based on a bioactive peptide from Crocodylus siamensis hemoglobin” (Scientific Reports, 2023):
Ends that are not written are not given here.

What was measured:
[1] = tested on: Bacillus subtilis (ATCC 6633); format: cell-based; conditions: ATCC 6633, 24 h
Procedure: (§1) Broth microdilution assays were performed as reported previously. In short, the bacteria including Escherichia coli (ATCC 25922), Klebsiella pneumoniae (ATCC 27736), Pseudomonas aeruginosa (ATCC 27853), Bacillus subtilis (ATCC 6633), Staphylococcus aureus (ATCC 25923) and Staphylococcus epidermidis (ATCC 12228) were grown in Nutrient broth to mid-log phase at 37 °C. The bacterial suspension (50 μL, concentration of 1 × 10^6 CFU/mL) was loaded into a well with serially diluted peptide (50 µL, final concentrations ranging from 0–200 μg/mL) in a sterile 96-well plate and incubated at 37 °C for 18 h. The optical density (OD) at 600 nm was measured using a microplate reader (ALLSHENG, Zhejiang, China) in order to determine the growth of the bacteria. The inhibition was estimated using the formula; %inhibition=OD600ofcontrol-OD600ofsample/OD600ofcontrol-OD600ofblank×100 where minimal inhibitory concentration (MIC) is defined as the minimum concentration that inhibited 90% of bacterial growth.
(§2) In order to evaluate the minimal bactericidal concentration (MBC)—the lowest concentration that terminates the growth of bacteria on an agar plate—of the peptide, co-culture medium (100 μL) from each well after the microdilution assay was spread on a nutrient agar plate. Plates were maintained at 37 °C for 24 h and the number of colonies formed was counted to evaluate antimicrobial activity.

[2] = tested on: Escherichia coli (ATCC 25922); format: cell-based; conditions: ATCC 25922, 24 h
Procedure: as §1, §2

[3] = tested on: Klebsiella pneumoniae (ATCC 27736); format: cell-based; conditions: ATCC 27736, 24 h
Procedure: as §1, §2

[4] = tested on: Pseudomonas aeruginosa (ATCC 27853); format: cell-based; conditions: ATCC 27853, 24 h
Procedure: as §1, §2

[5] = tested on: Staphylococcus aureus (ATCC 25923); format: cell-based; conditions: ATCC 25923, 24 h
Procedure: as §1, §2

[6] = tested on: Staphylococcus epidermidis (ATCC 12228); format: cell-based; conditions: ATCC 12228, 24 h
Procedure: as §1, §2

[7] = tested on: human erythrocytes; format: cell-based; conditions: red cells of human, 1 h
Procedure: Human whole blood was obtained from Blood Transfusion Center Faculty of Medicine Khon Kaen University (ethical approval number HE601010). Fresh human erythrocytes were carefully mixed with PBS (1:3) and centrifuged at 1000 × g for 2 min. The supernatant was discarded and the cell pellet was resuspended to 2% w/v in PBS. 100 µL of the resuspended erythrocytes were incubated with the peptide (10 µL, final concentrations ranging from 12.5 to 100 μg/mL, two-fold serial dilution) at 37 °C for 1 h. After the treatment, the plate was centrifuged and the supernatant was taken to determine the optical density at 415 nm using a microplate reader (ALLSHENG, Zhejiang, China). The positive control for this assay was the addition of Triton X-100 (1% v/v), which causes 100% hemolysis. The negative control was cells treated with PBS buffer only. The hemolysis activity was estimated using the equation: %hemolysis=OD415ofsample/OD415ofTritonX-100treatedcontrol×100

[8] = tested on: human keratinocyte cells (HaCaT); format: cell-based; conditions: 24 h
Procedure: (§3) Human peripheral blood mononuclear cells (PBMC), African green monkey kidney cells (Vero), human keratinocyte cells (HaCaT) and mouse preadipocytes (3T3-L1) were used to evaluate the cytotoxicity of peptides by the MTT assay. PBMCs were isolated using Ficoll medium (GE Healthcare, Uppsala, Sweden) as described by Jangpromma et al.[28]. The PBMCs were then cultured in RPMI 1640, while Vero, HaCaT and 3T3-L1 cells were cultured in DMEM. All culture mediums were supplemented with 10% heat-inactivated fetal bovine serum (FBS) and 1% antibiotic:antimycotic (Gibco, USA). The cells were cultured at 37 °C with 5% CO2/95% relative humidity. After that, PBMC (2 × 10^6 cells/well), Vero (1 × 10^4 cells/well), HaCaT (1 × 10^4 cells/well) and 3T3-L1 (1 × 10^4 cells/well) were individually seeded into 96-well plate and cultured at 37 °C overnight. Next, two-fold serially diluted peptides (3.13–200 μg/mL) were added to the cell culture. After incubation in 5% (v/v) CO2 incubator for 24 h, the medium culture was removed and MTT solution ([…] final concentration in fresh medium culture) was added to the cells and incubated for 30 min. Thereafter, the medium was removed and DMSO (100 µL) was added to each well to dissolve the formazan crystals. The optical density at 570 nm was determined using a microplate reader (ALLSHENG, Zhejiang, China). The cytotoxicity of IL15.3 against Vero, HaCaT and 3T3-L1 cells in the absence of FBS was also measured by the MTT assay to confirm the peptide is not sequestered by proteins in the serum causing artificially low cytotoxicity against eukaryotic cells.
(§4) Cell viability was determined using the equation: %cellviability=OD570ofsample/OD570ofuntreatedcontrol×100
(§5) GraphPad Prism8 (San Diego, CA, USA) was used to calculate IC50 values using a non-linear regression model.

[9] = tested on: human peripheral blood mononuclear cells (PBMC); format: cell-based; conditions: 24 h
Procedure: as §3, §4, §5

[10] = tested on: S. epidermidis (ATCC12228); experiment: Time-killing kinetics assay; format: cell-based, Staphylococcus epidermidis; conditions: 1 × MIC, 37 °C, colony count
Procedure: The time-killing kinetics of peptide was determined as described previously by Yaraksa et al.[16] In short, E. coli (ATCC25922) and S. epidermidis (ATCC12228) cells grown overnight were diluted in the Nutrient broth to a concentration of 1 × 10^6 CFU/mL. The diluted bacterial suspension (50 µL) was incubated with the peptide solution (50 µL, final concentration = 1 × MIC or 2 × MIC) at 37 °C. 10 µL of the mixture was taken at regular time intervals (0, 15, 30, 60, 180, 360, 540 and 720 min for 1 × MIC and 0, 30, 60, 180, 360, 720, 1440, 2160 and 2880 min for 2 × MIC), diluted and cultured on nutrient agar plates for 24 h. Bacterial cells were then counted and a graph of the log CFU/mL against incubation time was plotted to evaluate the rate at which peptides kill bacterial cells.

Q: For IKHWKKVWKHAKKVL [IL15.3], which MBC [1] is on record?
A: 12 µg/mL

Q: What about the MBC [2] of the same sequence?
A: 6 µg/mL

Q: What about the MBC [3] of the same sequence?
A: 25 µg/mL

Q: What about the MBC [4] of the same sequence?
A: 18 µg/mL

Q: And the MBC [5]?
A: 25 µg/mL

Q: What about the MBC [6] of the same sequence?
A: 12 µg/mL

Q: And the “Hemolysis concentration50 (HC50)” value [7]?
A: >2000 µg/mL

Q: And the “IC50 HaCaT” value [8]?
A: >200 µg/mL

Q: And the “IC50 PBMC” value [9]?
A: >200 µg/mL

Q: And the “time to inhibit the growth kinetic rate” value ([10]; 1 × 10^6 CFU/mL)?
A: ≤ 180 min

Q: What about the “time to completely stop growth” value [10] of the same sequence?
A: 360 min

Q: What about the increase in antimicrobial activity vs QL17 of the same sequence?
A: > 1000 fold
